Laboratory results as given in US8178535B2, “Substituted sulfonamide compounds having bradykinin 1 receptor activity and use thereof as medicaments” (Gruenenthal GmbH, priority 2008, dated 2012).

Legend:
[1] = biological target: T1, human B1R receptor (hB1R) (Homo sapiens, UniProt P46663); assay: FLIPR Ca2+ assay (Fluo-4) on CHO K1 cells stably transfected with the human B1R gene; type: cell-based; conditions: test substance 10 μM, agonist Lys-Des-Arg9-bradykinin 0.5 nM, % inhibition compared to the maximum achievable inhibition; for inhibition at 10 µM: CHO-K1
T1 construct: host or cells: CHO K1 cells
T1 sequence (P46663 1-353): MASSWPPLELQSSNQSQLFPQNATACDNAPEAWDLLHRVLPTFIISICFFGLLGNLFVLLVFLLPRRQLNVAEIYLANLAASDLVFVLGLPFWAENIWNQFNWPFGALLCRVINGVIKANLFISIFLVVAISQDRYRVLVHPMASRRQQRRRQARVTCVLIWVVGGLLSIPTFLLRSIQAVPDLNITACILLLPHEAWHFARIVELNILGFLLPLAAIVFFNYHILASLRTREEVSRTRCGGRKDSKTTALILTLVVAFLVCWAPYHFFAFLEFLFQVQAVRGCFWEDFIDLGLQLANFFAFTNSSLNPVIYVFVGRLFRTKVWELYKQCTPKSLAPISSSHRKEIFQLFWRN
Experimental: (§1) The agonistic or antagonistic action of compounds can be quantified on the bradykinin 1 receptor (B1R) of humans and rats with ectopically expressing cell lines (CHO K1 cells) and with the aid of a Ca^2+-sensitive dye (Fluo-4) in the fluorescent imaging plate reader (FLIPR). The figure in percent activation refers to the Ca^2+ signal after addition of Lys-Des-Arg^9-bradykinin (0.5 nM) and Des-Arg^9-bradykinin (100 nM). Antagonists result in a suppression of the Ca^2+ inflow after the addition of the agonist. Percent inhibition values are given in comparison to the maximum achievable inhibition. The compounds according to the invention act, for example, on the B1R which is implicated in various disease states. This means that the compounds of the invention are useful as pharmaceutically active substances in medicaments for the treatment and/or inhibition of such disease states.
(§2) The agonistic or antagonistic action of substances can be determined on the bradykinin 1 receptor (B1R) of humans and rats by means of the following assay. According to this assay the Ca^2+ inflow through the channel is quantified by means of a Ca^2+-sensitive dye (Fluo-4 type, Molecular Probes Europe BV, Leiden, Netherlands), in a Fluorescent Imaging Plate Reader (FLIPR, Molecular Devices, Sunnyvale, USA).
(§3) Chinese hamster ovary cells (CHO K1 cells) are used, which are stably transfected with the human B1R gene (hB1R cells, Euroscreen s.a., Gosselies, Belgium), or with the B1R gene of rats (rB1R cells, Axxam, Milan, Italy). For functional investigations these cells are plated out on black 96-well plates with a clear floor (BD Biosciences, Heidelberg, Germany) in a density of 20,000/25,000 cells/well. The cells are incubated overnight with 10 vol. % FBS (foetal bovine serum, Gibco Invitrogen GmbH, Karlsruhe, Germany) at 37° C. and 5% CO2 in a culture medium (hB1R cells: Nutrient Mixture Ham's F12, Gibco Invitrogen GmbH, Karlsruhe, Germany; rB1R cells: D-MEM/F12, Gibco Invitrogen GmbH, Karlsruhe, Germany). The following day the cells are charged for 60 minutes at 37° C. with 2.13 μM Fluo-4 (Molecular Probes Europe BV, Leiden, Netherlands) in HBSS buffer (Hank's buffered saline solution, Gibco Invitrogen GmbH, Karlsruhe, Germany) together with […] (Sigma-Aldrich, Taufkirchen, Germany) and 10 mM HEPES (Sigma-Aldrich, Taufkirchen, Germany).
(§4) The plates are then washed twice with HBSS buffer and HBSS buffer is added which additionally contains 0.1% BSA (bovine serum albumin; Sigma-Aldrich, Taufkirchen, Germany), 5.6 mM glucose and 0.05% gelatin (Merck KGaA, Darmstadt, Germany). After further incubation for 20 minutes at room temperature the plates are used for the Ca^2+ measurement in the FLIPR. The Ca^2+-dependent fluorescence is measured both before and after the addition of substances (λex=488 nm, λem=540 nm). The quantification is carried out by measuring the highest fluorescence intensity (FC, fluorescence counts) over time.
(§5) The FLIPR protocol consists of two substance additions. First, test substances (10 μM) are pipetted onto the cells and the Ca^2+ inflow is compared with the control (hB1R: Lys-Des-Arg9-bradykinin 0.5 nM; rB1R: Des-Arg9-bradykinin 100 nM). This gives the result in percent activation referred to the Ca^2+ signal after addition of Lys-Des-Arg9-bradykinin (0.5 nM), bzw. Des-Arg9-bradykinin (100 nM). After 10 minutes' incubation 0.5 nM Lys-Des-Arg9-bradykinin (hB1R) and 100 nM Des-Arg^9-bradykinin (rB1R) are applied and the inflow of Ca^2+ is likewise determined. Antagonists lead to a suppression of the Ca^2+ inflow. The percent inhibition compared to the maximum achievable inhibition is calculated. The compounds show a good activity on both human and rat receptors.
(§6) The agonistic and antagonistic action of the compounds according to the invention on the bradykinin 1 receptor (B1R) of humans and rats were determined as described above. Antagonists lead to a suppression of the Ca^2+ inflow. […]

[2] = biological target: T2, B1R receptor of rats (rB1R) (Rattus norvegicus, UniProt P97583); assay: FLIPR Ca2+ assay (Fluo-4) on CHO K1 cells stably transfected with the B1R gene of rats; type: cell-based; conditions: test substance 10 μM, agonist Des-Arg9-bradykinin 100 nM, % inhibition compared to the maximum achievable inhibition; for inhibition at 10 µM: CHO-K1
T2 construct: host or cells: CHO K1 cells
T2 sequence (P97583 1-337): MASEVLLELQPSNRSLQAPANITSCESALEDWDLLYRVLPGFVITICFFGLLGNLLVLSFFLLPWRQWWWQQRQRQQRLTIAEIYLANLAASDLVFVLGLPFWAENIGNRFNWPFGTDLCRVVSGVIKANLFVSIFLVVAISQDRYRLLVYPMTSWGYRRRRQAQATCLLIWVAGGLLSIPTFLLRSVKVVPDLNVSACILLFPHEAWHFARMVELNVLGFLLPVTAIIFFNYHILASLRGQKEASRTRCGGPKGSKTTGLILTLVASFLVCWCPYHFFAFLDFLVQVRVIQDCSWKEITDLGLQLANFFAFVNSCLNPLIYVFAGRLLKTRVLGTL
Experimental: as §1, §2, §3, §4, §5, §6

Compound	inhibition at 10 µM [1]	inhibition at 10 µM [2]	hB1R [10 μM] % Inhibition [1]	rB1R [10 μM] % Inhibition [2]
COc1cc(C)c(S(=O)(=O)N2CCCCC2COCC(=O)N2CCn3cccc3C2c2ccc(C(F)(F)F)cc2F)c(C)c1 (centres unmarked) [(32), 1-(1-(2-fluoro-4-(trifluoromethyl)phenyl)-3,4-dihydropyrrolo[1,2-a]pyrazin-2(1H)-yl)-2-((1-(4-methoxy-2,6-dimethylphenylsulfonyl)piperidin-2-yl)methoxy)ethanone]	61%	99%		
Cc1cc(C)c(S(=O)(=O)N2CCCCC2COCC(=O)N2CCn3cccc3C2C(C)(C)C)c(C)c1 (centres unmarked) [(33), 1-(1-tert-butyl-3,4-dihydropyrrolo[1,2-a]pyrazin-2(1H)-yl)-2-((1-(mesitylsulfonyl)piperidin-2-yl)methoxy)ethanone]	98%	100%		
Cc1cc(C)c(S(=O)(=O)N2CCCCC2COCC(=O)N2CCn3cccc3C2C)c(C)c1 (centres unmarked) [(34), 2-((1-(mesitylsulfonyl)piperidin-2-yl)methoxy)-1-(1-methyl-3,4-dehydro-pyrrolo[1,2-a]pyrazin-2(1H)-yl)ethanone]			76%	99%
Cc1cc(C)c(S(=O)(=O)N2CCCCC2COCC(=O)N2CCn3ccnc3C2)c(C)c1 (centres unmarked) [(37), 1-(5,6-dihydroimidazo[1,2-a]pyrazin-7(8H)-yl)-2-((1-(mesitylsulfonyl)piperidin-2-yl)methoxy)ethanone]	18%	91%		
Cc1cc(C)c(S(=O)(=O)N2CCCCC2COCC(=O)N2CCn3cccc3C2CCc2ccccc2)c(C)c1 (centres unmarked) [(45), 2-((1-(mesitylsulfonyl)piperidin-2-yl)methoxy)-1-(1-phenethyl-3,4-dihydro-pyrrolo[1,2-a]pyrazin-2(1H)-yl)ethanone]	45%	98%		
Cc1cc(C)c(S(=O)(=O)N2CCCCC2COCC(=O)N2CCn3c(CN(C)C)ccc3C2c2ccccc2)c(C)c1 (centres unmarked) [(46), 1-(6-((dimethylamino)methyl)-1-phenyl-3,4-dihydropyrrolo[1,2-a]pyrazin-2(1H)-yl)-2-((1-(mesitylsulfonyl)piperidin-2-yl)methoxy)ethanone]	102%	102%		
Cc1cc(C)c(S(=O)(=O)N2CCCCC2COCC(=O)N2CCn3c(CN4CCCC4)ccc3C2c2ccccc2)c(C)c1 (centres unmarked) [(47), 2-((1-(mesitylsulfonyl)piperidin-2-yl)methoxy)-1-(1-phenyl-6-(pyrrolidin-1-yl-methyl)-3,4-dihydropyrrolo[1,2-a]pyrazin-2(1H)-yl)ethanone]	101%	103%		

Other lines, results leading:

inhibition at 10 µM [1]	inhibition at 10 µM [2]	hB1R [10 μM] % Inhibition [1]	rB1R [10 μM] % Inhibition [2]	Compound
100%	97%			Cc1cc(C)c(S(=O)(=O)N2CCCCC2COCC(=O)N2CCn3cccc3C2c2cccnc2)c(C)c1 (centres unmarked) [(35), 2-((1-(mesitylsulfonyl)piperidin-2-yl)methoxy)-1-(1-(pyridin-3-yl)-3,4-dihydropyrrolo[1,2-a]pyrazin-2(1H)-yl)ethanone]
99%	99%			Cc1cc(C)c(S(=O)(=O)N2CCCCC2COCC(=O)N2CCn3cccc3C2c2ccc(Cl)nc2)c(C)c1 (centres unmarked) [(36), 1-(1-(6-chloropyridin-3-yl)-3,4-dihydropyrrolo[1,2-a]pyrazin-2(1H)-yl)-2-((1-(mesitylsulfonyl)piperidin-2-yl)methoxy)ethanone]
90%	99%			COc1ccc(C2c3cccn3CCN2C(=O)COCC2CCCCN2S(=O)(=O)c2c(C)cc(C)cc2C)cc1 (centres unmarked) [(38), 2-((1-(mesitylsulfonyl)piperidin-2-yl)methoxy)-1-(1-(4-methoxyphenyl)-3,4-dihydropyrrolo[1,2-a]pyrazin-2(1H)-yl)ethanone]
77%	99%			Cc1cc(C)c(S(=O)(=O)N2CCCCC2COCC(=O)N2CCn3cccc3C2c2ccccc2)c(C)c1 (centres unmarked) [(39), 2-((1-(mesitylsulfonyl)piperidin-2-yl)methoxy)-1-(1-phenyl-3,4-dihydropyrrolo[1,2-a]pyrazin-2(1H)-yl)ethanone]
38%	100%			Cc1cc(C)c(S(=O)(=O)N2CCCCC2COCC(=O)N2CCn3cccc3C2c2ccc(F)c(F)c2)c(C)c1 (centres unmarked) [(40), 1-(1-(3,4-difluorophenyl)-3,4-dihydropyrrolo[1,2-a]pyrazin-2(1H)-yl)-2-((1-(mesitylsulfonyl)piperidin-2-yl)methoxy)ethanone]
35%	98%			Cc1cc(C)c(S(=O)(=O)N2CCCCC2COCC(=O)N2CCn3cccc3C2c2ccc(C)c(C)c2)c(C)c1 (centres unmarked) [(41), 1-(1-(3,4-dimethylphenyl)-3,4-dihydropyrrolo[1,2-a]pyrazin-2(1H)-yl)-2-((1-(mesitylsulfonyl)piperidin-2-yl)methoxy)ethanone]
73%	99%			Cc1cc(C)c(S(=O)(=O)N2CCCCC2COCC(=O)N2CCn3cccc3C2c2cccc(F)c2)c(C)c1 (centres unmarked) [(42), 1-(1-(3-fluorophenyl)-3,4-dihydropyrrolo[1,2-a]pyrazin-2(1H)-yl)-2-((1-(mesitylsulfonyl)piperidin-2-yl)methoxy)ethanone]
96%	98%			Cc1cc(C)c(S(=O)(=O)N2CCCCC2COCC(=O)N2CCn3cccc3C2c2cccs2)c(C)c1 (centres unmarked) [(43), 2-((1-(mesitylsulfonyl)piperidin-2-yl)methoxy)-1-(1-(thiophen-2-yl)-3,4-dihydropyrrolo[1,2-a]pyrazin-2(1H)-yl)ethanone]
10%	79%			Cc1cc(C)c(S(=O)(=O)N2CCCCC2COCC(=O)N2CCn3cccc3C2c2cccc(C(F)(F)F)c2)c(C)c1 (centres unmarked) [(44), 2-((1-(mesitylsulfonyl)piperidin-2-yl)methoxy)-1-(1-(3-(trifluoromethyl)phenyl)-3,4-dihydropyrrolo[1,2-a]pyrazin-2(1H)-yl)ethanone]
